Test results from patent US10822376B2, “Biologically active peptides” (Baxalta Incorporated, priority 2008, dated 2020).

Legend:
mouse serum albumin = mouse serum albumin (Mus musculus, UniProt P07724); assay: in vitro; conditions: pH 7.4
FVIII−/− (E17) mice = assay: Tail clip assay in FVIII−/− mice (blood loss, survival)
Procedure: Groups of mice, typically 8-16 male and female exon 17 FVIII knockout mice with severe hemorrhagic diathesis, receive a single i.v. (tail vein), i.p. or s.c. bolus injection (10 ml/kg body weight). Two minutes before tail clip, animals are anesthetized by an i.p. application of 100 mg/kg ketamine and 5 mg/kg xylazine. Five minutes after i.v. and 60 minutes after i.p. or s.c. peptide or peptide derivative administration 0.5 cm of the tail tip is ablated. Blood dropping from the wound is collected in tubes containing 5.0 ml 0.04% NH3 for defined time periods, such as 0-2 minutes, 2-4 minutes, 4-6 minutes, 6-8, 8-10, 10-12, 12-14, 14-16, 16-20, 20-24, 24-28, 28-32, 32-42, 42-52 and 52-62 minutes. Blood cells in each tube are disrupted and hemoglobin is extracted by a three hour incubation period at room temperature followed by ultrasound treatment. The absorbance at 414 nm and 620 nm of the extracts is determined in micro titre plates. 620 nm is a reference wavelength and the A620 reading is subtracted from the A414 reading. The amount of blood in the extract corresponding to the subtracted reading is calculated from a standard curve created by known amounts of blood from wild type control mice, such as C57/BI6 mice. Parameters of the bleeding characteristics of the mice to be recorded are total blood loss, bleeding rate, bleeding time, 1 h, 2 h, 3 h, 4 h, 24 h and 48 h survival. Cumulative blood loss is calculated by summing up the amounts of blood for each time period. Data for the animals of a group are averaged and plotted against bleeding time. At each time point data sets for treatment and vehicle control groups are analysed by Student's t-test for statistical significance.
Parameters quantified were total blood loss, bleeding time, bleeding rate and survival.
Blood loss was monitored in the tail clip assay as described in the specific description for 62 minutes after tail clip. FVIII−/− mice were administered with rFVIII (Advate®) at 25, 50 or 100 U/kg i.v. or with vehicle alone. […] As a control, C57BI/6 mice were administered vehicle alone.
Vehicle was 5% DMSO, 5% Cremophor EL, 0.05% Tween 80 in water for injection.

mouse serum albumin, sequence (P07724 25-608): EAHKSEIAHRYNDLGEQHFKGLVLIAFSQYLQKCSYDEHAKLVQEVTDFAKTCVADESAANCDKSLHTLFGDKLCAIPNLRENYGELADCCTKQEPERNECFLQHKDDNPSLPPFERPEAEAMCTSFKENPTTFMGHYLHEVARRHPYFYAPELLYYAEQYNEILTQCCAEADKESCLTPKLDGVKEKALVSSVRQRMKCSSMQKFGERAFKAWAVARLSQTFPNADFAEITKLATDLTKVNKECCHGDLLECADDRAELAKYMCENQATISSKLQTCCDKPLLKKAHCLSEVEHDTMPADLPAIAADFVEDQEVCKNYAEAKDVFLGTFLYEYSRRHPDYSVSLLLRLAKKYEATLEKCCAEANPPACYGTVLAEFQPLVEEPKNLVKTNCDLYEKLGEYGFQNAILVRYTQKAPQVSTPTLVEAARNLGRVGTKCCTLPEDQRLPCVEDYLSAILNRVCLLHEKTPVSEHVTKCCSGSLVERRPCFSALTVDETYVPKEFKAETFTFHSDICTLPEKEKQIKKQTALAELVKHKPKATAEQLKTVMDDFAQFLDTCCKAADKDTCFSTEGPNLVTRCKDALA

Substance: Ac-RMKFDVWDLYFEIVW-NH2 [Peptide A01]
- fraction unbound at 6 h, 5 μM (mouse serum albumin): < 0.003
- recovery at 6 h, 5 μM (mouse serum albumin): > 103%
- Survival vs vehicle control (FVIII−/− (E17) mice; 20 mg/kg i.v.): statistically significant longer survival
- Mean volume of blood loss following tail clip compared to vehicle control (FVIII−/− (E17) mice; 20 mg/kg i.v. five minutes before tail clip, p<0.05 at most time points): significantly different
- p of difference in mean blood loss vs vehicle (FVIII−/− (E17) mice; 20 mg/kg i.v., at 52 and 62 minutes after tail clip): < 0.01
- Survival (%) 2 hours (FVIII−/− (E17) mice; FVIII−/− mice, 20 mg/kg i.v. five minutes before tail clip, 2 hours (Table 26)): 56%
- Survival (%) 4 hours (FVIII−/− (E17) mice; FVIII−/− mice, 20 mg/kg i.v. five minutes before tail clip, 4 hours (Table 26)): 25%
- Survival (%) 24 hours (FVIII−/− (E17) mice; FVIII−/− mice, 20 mg/kg i.v. five minutes before tail clip, 24 hours (Table 26)): 6%
- Survival (%) 48 hours (FVIII−/− (E17) mice; FVIII−/− mice, 20 mg/kg i.v. five minutes before tail clip, 48 hours (Table 26)): 0%
- Survival (%) 2 hours (FVIII−/− (E17) mice; FVIII−/− mice, Exp 1, 20 mg/kg i.v., tail clip, 2 hours): 56%
- Survival (%) 3 hours (FVIII−/− (E17) mice; FVIII−/− mice, Exp 1, 20 mg/kg i.v., tail clip): 44%
- Survival (%) 4 hours (FVIII−/− (E17) mice; FVIII−/− mice, Exp 1, 20 mg/kg i.v., tail clip, 4 hours): 25%
- Survival (%) 24 hours (FVIII−/− (E17) mice; FVIII−/− mice, Exp 1, 20 mg/kg i.v., tail clip, 24 hours): 6%
- Survival (%) 2 hours (FVIII−/− (E17) mice; FVIII−/− mice, Exp 2 (repeat), 20 mg/kg i.v., tail clip, 2 hours): 63%
- Survival (%) 3 hours (FVIII−/− (E17) mice; FVIII−/− mice, Exp 2 (repeat), 20 mg/kg i.v., tail clip): 38%
- Survival (%) 4 hours (FVIII−/− (E17) mice; FVIII−/− mice, Exp 2 (repeat), 20 mg/kg i.v., tail clip, 4 hours): 31%
- Survival (%) 24 hours (FVIII−/− (E17) mice; FVIII−/− mice, Exp 2 (repeat), 20 mg/kg i.v., tail clip, 24 hours): 13%
- Total blood loss (% of Vehicle) (FVIII−/− (E17) mice; FVIII−/− mice, female, 20 mg/kg i.p., 0.5 cm tail clip): 72 % of Vehicle
- Survival 2 hours (%) (FVIII−/− (E17) mice; FVIII−/− mice, female, 20 mg/kg i.p., 0.5 cm tail clip, 2 hours): 75%
- Survival 4 hours (%) (FVIII−/− (E17) mice; FVIII−/− mice, female, 20 mg/kg i.p., 0.5 cm tail clip, 4 hours): 25%
- Survival 24 hours (%) (FVIII−/− (E17) mice; FVIII−/− mice, female, 20 mg/kg i.p., 0.5 cm tail clip, 24 hours): 25%
- Survival 2 hours (%) (FVIII−/− (E17) mice; FVIII−/− mice, female, 20 mg/kg i.v., 1 cm tail clip, 2 hours): 80%
- Survival 24 hours (%) (FVIII−/− (E17) mice; FVIII−/− mice, female, 20 mg/kg i.v., 1 cm tail clip, 24 hours): 10%
- Total blood loss (% of Vehicle) (FVIII−/− (E17) mice; FVIII−/− mice, male, 20 mg/kg i.p., 0.5 cm tail clip): 83 % of Vehicle
- Survival 2 hours (%) (FVIII−/− (E17) mice; FVIII−/− mice, male, 20 mg/kg i.p., 0.5 cm tail clip, 2 hours): 38%
- Survival 4 hours (%) (FVIII−/− (E17) mice; FVIII−/− mice, male, 20 mg/kg i.p., 0.5 cm tail clip, 4 hours): 25%
- Survival 24 hours (%) (FVIII−/− (E17) mice; FVIII−/− mice, male, 20 mg/kg i.p., 0.5 cm tail clip, 24 hours): 25%
- Survival 2 hours (%) (FVIII−/− (E17) mice; FVIII−/− mice, male, 20 mg/kg i.v., 1 cm tail clip, 2 hours): 20%
- Survival 24 hours (%) (FVIII−/− (E17) mice; FVIII−/− mice, male, 20 mg/kg i.v., 1 cm tail clip, 24 hours): 0%
- Compensation for lack of FVIII (reducing blood loss, increasing survival following tail clip) (FVIII−/− (E17) mice; conclusion): at least partially compensate for the lack of FVIII
- Gender effect on efficacy (FVIII−/− (E17) mice; i.v., tail clip 1 cm): more effective in female than male mice
- Difference in survival curves vs vehicle (FVIII−/− (E17) mice; male mice, 20 mg/kg i.p., 0.5 cm tail clip): no statistically significant difference
- Bleeding and survival in two independently performed experiments (FVIII−/− (E17) mice; repeat experiment): bleed less and survive longer
- Activity in the tail clip assay (FVIII−/− (E17) mice; summary): possessing activity
